Structures can show the parent of a compound that is named as a salt.

The record followed here is patent publication US9067911B2, “Piperidine derivatives” (Hoffmann-La Roche Inc., priority 2009, dated 2015).

For the experiment, the target named is T1, mGlyT-1b (Mus musculus, UniProt P28571).
T1 construct: host or cells: Flp-in-CHO
T1 sequence (P28571 1-651 isoform P28571-2): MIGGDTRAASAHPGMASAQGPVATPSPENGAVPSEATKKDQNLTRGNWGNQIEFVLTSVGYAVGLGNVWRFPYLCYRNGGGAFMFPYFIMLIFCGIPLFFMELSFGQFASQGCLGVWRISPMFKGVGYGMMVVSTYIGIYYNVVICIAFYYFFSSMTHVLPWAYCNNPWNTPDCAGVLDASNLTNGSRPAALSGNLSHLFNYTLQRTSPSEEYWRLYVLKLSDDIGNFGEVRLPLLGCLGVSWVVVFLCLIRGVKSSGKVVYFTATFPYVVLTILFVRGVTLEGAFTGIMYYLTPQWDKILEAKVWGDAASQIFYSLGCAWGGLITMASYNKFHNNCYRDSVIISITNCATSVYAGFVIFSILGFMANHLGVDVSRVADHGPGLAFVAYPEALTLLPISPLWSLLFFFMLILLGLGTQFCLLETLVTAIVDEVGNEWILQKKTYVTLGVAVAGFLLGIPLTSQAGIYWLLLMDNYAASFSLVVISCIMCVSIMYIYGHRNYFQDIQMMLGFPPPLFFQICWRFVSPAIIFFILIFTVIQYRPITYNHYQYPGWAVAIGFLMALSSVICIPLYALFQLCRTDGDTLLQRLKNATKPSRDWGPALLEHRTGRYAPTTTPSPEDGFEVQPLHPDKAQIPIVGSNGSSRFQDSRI
The experiment in a line: Glycine uptake inhibition assay (mGlyT-1b). Particulars: [3H]-glycine uptake, Flp-in-CHO cells stably transfected with mGlyT1b cDNA, 20 min preincubation at 22° C. Format: cell-based. The method, then:
Nutrient mixture F-12 (Gibco Life-technologies), fetal bovine serum (FBS) 5%, (Gibco life technologies), Penicillin/Streptomycin 1% (Gibco life technologies), Hygromycin 0.6 mg/ml (Gibco life technologies), Glutamine 1 mM Gibco life technologies)
150 mM NaCl, 10 mM Hepes-Tris, pH 7.4, 1 mM CaCl2, 2.5 mM KCl, 2.5 mM MgSO4, 10 mM (+) D-glucose.
Flp-in™-CHO (Invitrogen Cat n° R758-07) cells stably transfected with mGlyT1b cDNA.
Glycine Uptake Inhibition Assay (mGlyT-1b)
On day 1 mammalian cells, (Flp-in™-CHO), transfected with mGlyT-1b cDNA, were plated at the density of 40,000 cells/well in complete F-12 medium, without hygromycin in 96-well culture plates. On day 2, the medium was aspirated and the cells were washed twice with uptake buffer (UB). The cells were then incubated for 20 min at 22° C. with either (i) no potential competitor, (ii) 10 mM non-radioactive glycine, (iii) a concentration of a potential inhibitor. A range of concentrations of the potential inhibitor was used to generate data for calculating the concentration of inhibitor resulting in 50% of the effect (e.g. IC50, the concentration of the competitor inhibiting glycine uptake of 50%). A solution was then immediately added containing [^3H]-glycine 60 nM (11-16 Ci/mmol) and 25 μM non-radioactive glycine. The plates were incubated with gentle shaking and the reaction was stopped by aspiration of the mixture and washing (three times) with ice-cold UB. The cells were lysed with scintillation liquid, shaken 3 hours and the radioactivity in the cells was counted using a scintillation counter.
As to `COc1cc(C(F)(F)F)cc(SC)c1C(=O)N[C@@]1(c2ccccc2)C[C@H](C)CN(C)C1` (mixture of isomers) [Example 85, N-((3R,5SR)-1,5-Dimethyl-3-phenyl-piperidin-3-yl)-2-methoxy-6-methylsulfanyl-4-trifluoromethyl-benzamide hydrochloride], half-maximal inhibition (IC50) required 31.3 nM. As for `CCc1cc(C(F)(F)F)ccc1C(=O)NC1(c2ccccc2)CCCN(C)C1` (racemic) [Example 4, rac-2-Ethyl-N-(1-methyl-3-phenyl-piperidin-3-yl)-4-trifluoromethyl-benzamide], the figure is 26.4 nM; as for `CN1CCCC(NC(=O)c2c(F)cc(C(F)(F)F)cc2C(F)(F)F)(c2ccccc2)C1` (racemic) [Example 5, rac-2-Fluoro-N-(1-methyl-3-phenyl-piperidin-3-yl)-4,6-bis-trifluoromethyl-benzamide], 107 nM; as for `COc1cc(C(F)(F)F)cc(Br)c1C(=O)NC1(c2ccccc2)CCCN(C)C1` (racemic) [Example 7, rac-2-Bromo-6-methoxy-N-(1-methyl-3-phenyl-piperidin-3-yl)-4-trifluoromethyl-benzamide], 85.4 nM. As for `COc1cc(C(F)(F)F)cc(SC)c1C(=O)NC1(c2ccccc2)CCCN(C)C1C` (racemic) [Example 11, rac-N-(1,2-Dimethyl-3-phenyl-piperidin-3-yl)-2-methoxy-6-methylsulfanyl-4-trifluoromethyl-benzamide], the figure is 20.2 nM.

In the case of `CN1CCCC(NC(=O)c2ccc(C(F)(F)F)cc2C2CC2)(c2ccccc2)C1` (racemic) [Example 13, rac-2-Cyclopropyl-N-(1-methyl-3-phenyl-piperidin-3-yl)-4-trifluoromethyl-benzamide], inhibition was half-maximal at 13 nM (IC50).

With `COc1cc(C(F)(F)F)cc(C(F)(F)F)c1C(=O)NC1(c2ccccc2)CCCN(C)C1` (racemic) [Example 16, rac-2-Methoxy-N-(1-methyl-3-phenyl-piperidin-3-yl)-4,6-bis-trifluoromethyl-benzamide], the 50% inhibitory concentration (IC50) turned out to be 138 nM.

In the case of `COc1cc(C(F)(F)F)cc(SC)c1C(=O)NC1(c2ccccc2)CCCN(C)C1` (racemic) [Example 18, rac-2-Methoxy-N-(1-methyl-3-phenyl-piperidin-3-yl)-6-methylsulfanyl-4-trifluoromethyl-benzamide], the IC50 turned out to be 24.4 nM. Next, `CSc1cc(C(F)(F)F)ccc1C(=O)NC1(c2ccccc2)CCCN(C)C1` (racemic) [Example 19, rac-N-(1-Methyl-3-phenyl-piperidin-3-yl)-2-methylsulfanyl-4-trifluoromethyl-benzamide]: 67.2 nM; `CCc1cc(C(F)(F)F)cc(C(F)(F)F)c1C(=O)NC1(c2ccccc2)CCCN(C)C1` (racemic) [Example 25, rac-2-Ethyl-N-(1-methyl-3-phenyl-piperidin-3-yl)-4,6-bis-trifluoromethyl-benzamide]: 126 nM; `COc1cc(C(F)(F)F)cc(C(F)(F)F)c1C(=O)NC1(c2ccc(F)cc2)CCCN(C)C1` (racemic) [Example 26, rac-N-[3-(4-Fluoro-phenyl)-1-methyl-piperidin-3-yl]-2-methoxy-4,6-bis-trifluoromethyl-benzamide]: 59.3 nM. As for `COc1cc(C(F)(F)F)cc(SC)c1C(=O)NC1(c2ccc(F)cc2)CCCN(C)C1` (racemic) [Example 27, rac-N-[3-(4-Fluoro-phenyl)-1-methyl-piperidin-3-yl]-2-methoxy-6-methylsulfanyl-4-trifluoromethyl-benzamide], the figure is 26.2 nM. The compound `COc1cc(C(F)(F)F)cc(SC)c1C(=O)NC1(c2ccc(Cl)cc2)CCCN(C)C1` (racemic) [Example 28, rac-N-[3-(4-Chloro-phenyl)-1-methyl-piperidin-3-yl]-2-methoxy-6-methylsulfanyl-4-trifluoromethyl-benzamide] had an IC50 of 27.7 nM.

The compound `CN1CCCC(NC(=O)c2ccc(C(F)(F)F)cc2OC(F)F)(c2ccccc2)C1` (racemic) [Example 39, rac-2-Difluoromethoxy-N-(1-methyl-3-phenyl-piperidin-3-yl)-4-trifluoromethyl-benzamide] yielded an IC50 of 184 nM.

In turn, `COc1cc(C(F)(F)F)cc(SC)c1C(=O)NC1(c2cccc(Cl)c2)CCCN(C)C1` (racemic) [Example 45, rac-N-[3-(3-Chloro-phenyl)-1-methyl-piperidin-3-yl]-2-methoxy-6-methylsulfanyl-4-trifluoromethyl-benzamide hydrochloride] registered an IC50 of 24.5 nM. Compound `COc1ccc(C2(NC(=O)c3c(OC)cc(C(F)(F)F)cc3SC)CCCN(C)C2)cc1` (racemic) [Example 46, rac-2-Methoxy-N-[3-(4-methoxy-phenyl)-1-methyl-piperidin-3-yl]-6-methylsulfanyl-4-trifluoromethyl-benzamide] gave an IC50 of 169 nM. As for `COc1cc(C(F)(F)F)cc(SC)c1C(=O)NC1(c2ccc(F)cn2)CCCN(C)C1` (racemic) [Example 47, rac-N-(5-Fluoro-1′-methyl-1′,4′,5′,6′-tetrahydro-2′H-[2,3′]bipyridinyl-3′-yl)-2-methoxy-6-methylsulfanyl-4-trifluoromethyl-benzamide], the figure is 181 nM.

`COc1cc(C(F)(F)F)cc(SC)c1C(=O)NC1(c2ccccc2)CC(F)CN(C)C1` (racemic) [Example 48, rac-N-(5-Fluoro-1-methyl-3-phenyl-piperidin-3-yl)-2-methoxy-6-methylsulfanyl-4-trifluoromethyl-benzamide] registered a concentration for half-maximal inhibition (IC50) of 197 nM. Next, `COc1cc(C(F)(F)F)cc(SC)c1C(=O)NC1(c2ccccc2)CC(O)CN(C)C1` (racemic) [Example 51, rac-N-(5-Hydroxy-1-methyl-3-phenyl-piperidin-3-yl)-2-methoxy-6-methylsulfanyl-4-trifluoromethyl-benzamide]: 58.2 nM; `COc1cc(C(F)(F)F)cc(SC)c1C(=O)NC1(c2ccccc2)CCCN(C(C)C)C1` (racemic) [Example 55, rac-N-(1-Isopropyl-3-phenyl-piperidin-3-yl)-2-methoxy-6-methylsulfanyl-4-trifluoromethyl-benzamide; hydrochloride]: 77.7 nM; `COc1cc(C(F)(F)F)cc(SC)c1C(=O)NC1(C2CCCCC2)CCCN(C)C1` (racemic) [Example 58, rac-N-(3-Cyclohexyl-1-methyl-piperidin-3-yl)-2-methoxy-6-methylsulfanyl-4-trifluoromethyl-benzamide]: 156 nM.

`CN1CCCC(NC(=O)c2ccc(C(F)(F)F)cc2C2CCC2)(c2ccccc2)C1` (racemic) [Example 66, rac-2-Cyclobutyl-N-(1-methyl-3-phenyl-piperidin-3-yl)-4-trifluoromethyl-benzamide hydrochloride] gave a concentration for half-maximal inhibition (IC50) of 243 nM.

For `COc1cc(C(F)(F)F)cc(SC)c1C(=O)NC1(c2ccc(F)cc2F)CCCN(C)C1` (racemic) [Example 67, rac-N-[3-(2,4-Difluoro-phenyl)-1-methyl-piperidin-3-yl]-2-methoxy-6-methylsulfanyl-4-trifluoromethyl-benzamide], the IC50 is 129 nM. Compared with the last compound, the IC50 is about 1.9-fold lower. Next, `COc1cc(C(F)(F)F)cc(SC)c1C(=O)NC1(c2ccccc2F)CCCN(C)C1` (racemic) [Example 68, rac-N-[3-(2-Fluoro-phenyl)-1-methyl-piperidin-3-yl]-2-methoxy-6-methylsulfanyl-4-trifluoromethyl-benzamide]: 175 nM; `COc1cc(C(F)(F)F)cc(SC)c1C(=O)NC1(c2cc(F)ccc2F)CCCN(C)C1` (racemic) [Example 69, rac-N-[3-(2,5-Difluoro-phenyl)-1-methyl-piperidin-3-yl]-2-methoxy-6-methylsulfanyl-4-trifluoromethyl-benzamide]: 117 nM. Next, `CC(C)c1cc(C(F)(F)F)ccc1C(=O)NC1(c2ccccc2)CCCN(C)C1` (racemic) [Example 70, rac-2-Isopropyl-N-(1-methyl-3-phenyl-piperidin-3-yl)-4-trifluoromethyl-benzamide hydrochloride]: 197 nM.

What is called IC50 is the midpoint of a concentration-inhibition curve. Low values mean higher potency, high ones lower potency.
